pIC50: −log10 of the molar value. Converted amounts (≈) assume the structure as drawn.
Columns and labels:
[1] = tested on: Candida albicans (ATCC 10231); experiment: Antimicrobial assay, broth microdilution, C. albicans; type: cell-based; design: key to MIC C. albicans: -: no activity; conditions: MIC = 80% growth inhibition, tested 400 to 0.39 µg/mL; for MIC C. albicans: 24 h at 37 °C; for MIC: Candida albicans, ATCC10231, 24 h at 37 °C
Method: (§1) Meanwhile, the antimicrobial assays of compounds 1–9 were screened against Staphylococcus aureus (ATCC 25923), Escherichia coli (ATCC 25922) and Candida albicans (ATCC 10231).
(§2) The antimicrobial assays against S. aureus, E. coli and C. albicans were carried out by the broth microdilution method. The tested organisms were incubated overnight with shaking (200 rpm) in thermostatic oscillation incubator (37 °C) in Mueller Hinton broth (MHB) and liquid Sabourand medium for the bacteria and the fungus, respectively. The microbial inoculum density was adjusted to 1 × 10^6 cfu/mL with 0.9% saline solution by comparison with a MacFarland standard. The tested substances and positive drugs were dissolved in methanol to an initial concentration of 40 mg/mL. 4 μL of initial compound solution and 196 μL of MHB (liquid Sabourand medium for fungus) were added into the first well and mixed evenly. Then 100 μL of solution from the first hole, along with 2 μL of methanol and 98 μL of MHB (liquid Sabourand medium for fungus), were transferred to the second hole, and then shaken up as mixture uniform. The repetitive operation was performed to the eleventh one, from which 100 μL of solution well was discarded. Then, 100 μL of microbial suspension was added to the solutions in 96-well to achieve a final volume of 200 µL and final sample concentrations from 400 to 0.39 µg/mL. The blank well was also incubated with only medium under the same conditions. All experiments were carried out in triplicate and with chloramphenicol and ketoconazole as the positive controls. Optical density measurement for bacteria and fungus was recorded at 620 nm after incubation at 37 °C for 12 and 24 h, respectively. The minimal inhibitory concentration (MIC) was defined as the concentration at which the growth was inhibited 80% of the tested microorganisms.

[2] = tested on: Escherichia coli (ATCC 25922); experiment: Antimicrobial assay, broth microdilution, E. coli; type: cell-based; design: key to MIC E. coli: -: no activity; conditions: MIC = 80% growth inhibition, tested 400 to 0.39 µg/mL; for MIC: Escherichia coli, ATCC25922, 12 h at 37 °C; for MIC E. coli: 12 h at 37 °C
Method: as §1, §2

[3] = tested on: Staphylococcus aureus (ATCC 25923); experiment: Antimicrobial assay, broth microdilution, S. aureus; type: cell-based; design: key to MIC S. aureus: -: no activity; conditions: MIC = 80% growth inhibition, tested 400 to 0.39 µg/mL; for MIC: Staphylococcus aureus, ATCC25923, 12 h at 37 °C
Method: as §1, §2

[4] = tested on: human promyelocytic leukemia (HL60) cell line; experiment: cells; conditions: HL-60, read-out: IC50 cytotoxicity against HL60
Method: (§3) The cytotoxic activity against HL60, A549 and HL-7702 cell lines was performed by the MTT method as previously described.

in vitro = conditions: human
Method: as §3

[5] = tested on: human lung adenocarcinoma (A549) cell line; experiment: Cytotoxicity by the MTT method, A549; conditions: A549, read-out: IC50 cytotoxicity against A549
Method: as §3

| SMILES | MIC C. albicans [1] | MIC [2] | MIC [3] | MIC E. coli [2] | also measured |
| --- | --- | --- | --- | --- | --- |
| COC1=CC(=O)OC12Oc1cc(O)cc(C)c1CC2C (racemic) [Compound 4, (±)-Aspersclerolide D] | - | > 400 µg/mL | > 400 µg/mL |  |  |
| COC1=CC(=O)C(C)C1O (racemic) [Compound 5, (±)-4-hydroxy-3-methoxy-5-methyl-2-cyclopentenone] | - |  |  | - | MIC S. aureus ([3]; 12 h at 37 °C): - |
| CC(=O)C1(O)OC(=O)C=C1C (stereo not drawn) [Compound 1, Aspersclerolide A] | - | > 400 µg/mL | > 400 µg/mL |  | pIC50 [4]: 5.19; pIC50 (in vitro): 4.75; pIC50 [5]: 5.05 |
| COC(CO)C1(O)OC(=O)C=C1C (stereo not drawn) [Compound 2, Aspersclerolide B] | - | 200 µg/mL (≈ 1060 µM) | 200 µg/mL (≈ 1060 µM) |  |  |
| COC1=CC(=O)OC1(O)C(C)Cc1c(C)cc(O)cc1O (stereo not drawn) [Compound 3, Aspersclerolide C] | - | 200 µg/mL (≈ 680 µM) | 200 µg/mL (≈ 680 µM) |  | pIC50 [4]: 4.92; pIC50 (in vitro): 4.64; pIC50 [5]: 4.78 |
| COC1=CC(=O)OC1(O)C(C)CO (stereo not drawn) [Compound 6, 6-hydroxyl dihydropenicillic acid] | - |  | > 400 µg/mL | - |  |
| C=C(OC)C1(O)OC(=O)C=C1C (stereo not drawn) [Compound 7, spersclerotioron G] | - |  | > 400 µg/mL | - |  |
| C=C(C)C1(O)OC(=O)C=C1OC (stereo not drawn) [Compound 8, penicillic acid] |  | 12.5 µg/mL (≈ 73.5 µM) | 6.25 µg/mL (≈ 36.7 µM) |  | MIC [1]: 50 µg/mL (≈ 294 µM) |
| COC1=CC(=O)OC1(O)C(C)C (stereo not drawn) [Compound 9, dihydropenicillic acid] | - |  | > 400 µg/mL | - |  |
| O=C(N[C@H](CO)[C@H](O)c1ccc([N+](=O)[O-])cc1)C(Cl)Cl [chloramphenicol, reference compound] |  | 6.25 µg/mL (≈ 19.3 µM) | 3.12 µg/mL (≈ 9.66 µM) |  |  |
| COc1cccc2c1C(=O)c1c(O)c3c(c(O)c1C2=O)C[C@@](O)(C(=O)CO)C[C@@H]3O[C@H]1C[C@H](N)[C@H](O)[C@H](C)O1 [doxorubicin, reference compound] |  |  |  |  | pIC50 [4]: 6.07; pIC50 (in vitro; HL-7702 cells (human normal liver, non-cancer)): 5.08; pIC50 [5]: 5.82 |
| CC(=O)N1CCN(c2ccc(OCC3COC(Cn4ccnc4)(c4ccc(Cl)cc4Cl)O3)cc2)CC1 (stereo not drawn) [ketoconazole, reference compound] |  |  |  |  | MIC [1]: 6.25 µg/mL (≈ 11.8 µM) |

Reference: article PMC6680918, “New Butenolides and Cyclopentenones from Saline Soil-Derived Fungus Aspergillus Sclerotiorum” (Molecules, 2019)
